According to patent US6967196B1, “Sulfonamide compounds and uses thereof” (Bristol-Myers Squibb Company, priority 1999, dated 2005):
Where a name gives a salt, the structure may show the parent alone. Read-outs that look alike come from different tables or passages of the source.

Tested on: amyloid β production in transfected H4 (human neuroglioma) cells stably expressing APP constructs
Assay: In vitro cell-based assay of inhibitors of amyloid β production (ELISA)
Conditions: amyloid β in medium by ELISA
Method: In Vitro Cell-Based Assay of Inhibitors of Amyloid β Production
Transfected H4 (human neuroglioma) cells stably expressing APP constructs are used to identify and assess inhibitors of Aβ production. In brief, cells lines are exposed to compounds, and the effect of each compound on amyloid β production is determined by measuring the amount of amyloid β produced using an enzyme linked immunosorbent assay (ELISA) that detects amyloid β (see, for example, Seubert et al., (1992) Nature, 359:325-327).
Transfected cells that stably express wild-type and variant forms of APP are plated in 96-well format plates at a density sufficient for the rapid detection of the secreted amyloid β (experimentally predetermined for a particular stable cell population). Cells are plated at least six hours prior to the introduction of the test compound at which time the growth medium is replaced by fresh medium containing the compound to be tested. All synthetic agents are initially screened at doses ranging from 10-100 μM. Higher dilutions of agents can be used to minimize cytotoxicity. Incubation of cells with a test compound continues for approximately 16 hours at which time aliquots of medium from each well are removed and assayed for amyloid β.
ELISA is carried out by methods known in the art (see, e.g., Haass et al., Antibodies: A Laboratory Manual, Harlow and lane, Editors, Cold Spring Harbor Press, 1988) The capture antibody is typically a mouse monoclonal (IgG1/kβ-APPa) which recognizes the carboxyl terminal epitope of amyloid β. The specificity of the capture antibody insures measurement of amyloid β without interference from other secreted APP fragments that share amino acid sequence (amyloid β 1-16) homology with amyloid β but lack the carboxy-terminal region. The detecting antibody is typically an affinity-purified rabbit polyclonal antibody that is specific for the amino terminus of amyloid β.
Results from test compounds are compared to results obtained when cells are treated with control agents. Amyloid β levels are determined by comparison to a standard curve obtained by subjecting a range of known amounts of amyloid β to the ELISA.
A compound is identified as “active” when it inhibits cellular production of amyloid β relative to levels in control samples by at least 50% at the initial tested concentration without significant cytotoxicity. Active compounds are then assayed in dose-response experiments to determine the lowest dose of compound necessary for inhibition of amyloid β production.

[1] = transfected H4 cells stably expressing APP, approximately 16 hours incubation, read-out: ACTIVITY (IC50, inhibition of amyloid β production)
[2] = transfected H4 cells stably expressing APP, approx. 16 h incubation, read-out: ACTIVITY (IC50, inhibition of amyloid β production)
[3] = transfected H4 cells stably expressing APP constructs, approximately 16 hours incubation, read-out: ACTIVITY (IC50, inhibition of amyloid β production)
[4] = Homo sapiens, 16 h, transfected H4 cells expressing APP, approximately 16 hours incubation, read-out: ACTIVITY (IC50, inhibition of amyloid β production)
[5] = transfected H4 cells stably expressing APP, approximately 16 hours incubation, Table B, read-out: ACTIVITY (IC50, inhibition of amyloid β production)
[6] = Homo sapiens, 16 h, transfected H4 cells stably expressing APP, approximately 16 hours incubation, read-out: ACTIVITY (IC50, inhibition of amyloid β production)
[7] = Homo sapiens, 16 h, transfected H4 cells stably expressing APP, approx. 16 h incubation, read-out: ACTIVITY (IC50, inhibition of amyloid β production)

COc1cccc(OC)c1CNC(=O)[C@@H](C)N(c1cc(Cl)ccc1F)S(=O)(=O)c1ccc(Cl)cc1 [Example 1364]
IC50 (transfected H4 cells expressing APP, approximately 16 hours incubation, read-out: ACTIVITY (IC50, inhibition of amyloid β production)): > 500 nM

4-chloro-N-(2,5-difluorophenyl)-N-((1R)-1-{2-[3-(1H-imidazol-1-yl)propoxy]-6-methoxybenzyl}benzenesulfonamide hydrochloride [Example 911]
IC50 [1]: > 500 nM

3-(2-{[(phenylsulfonyl)anilino]methyl}phenyl)propanoic acid [Example 993]
IC50 [1]: > 500 nM

CCNC(=O)N(C)CCOc1ccccc1C(C)N(c1cc(F)ccc1F)S(=O)(=O)c1ccc(Cl)cc1 (stereo not drawn) [Example 801, 4-chloro-N-(2,5-difluorophenyl)-N-[1-(2-{3-[[(ethylamino)carbonyl](methyl)amino]ethoxy}phenyl)ethyl]benzenesulfonamide]
IC50 [2]: 100 to 500 nM

C[C@H](CCC[S+](C)[O-])N(c1cc(Cl)ccc1Cl)S(=O)(=O)c1ccc(Cl)cc1 (stereo partly drawn) [Example 1171, 4-chloro-N-[2,5-dichlorophenyl]-N-[1(R)-methyl-(4-methylsulfinyl)butyl]benzenesulfonamide]
IC50 [3]: ≤ 25 nM

C[C@@H](c1ccc(F)cc1CCCC(=O)O)N(c1cc(F)ccc1F)S(=O)(=O)c1ccc(Cl)cc1 [Example 1076, 4-[2-((1S)-1-{[(4-chlorophenyl)sulfonyl]-2,5-difluoroanilino}ethyl)-5-fluorophenyl]butanoic acid]
IC50 [1]: > 500 nM

C[C@H](CCCS(=O)(=O)C(C)(C)C)N(c1cc(Cl)ccc1CO)S(=O)(=O)c1ccc(Cl)cc1 [Example 1218]
IC50 [3]: ≤ 25 nM

C[C@H](C(=O)NCCc1ccccn1)N(c1cc(Cl)ccc1F)S(=O)(=O)c1ccc(Cl)cc1 [Example 1339]
IC50 [4]: 100 to 500 nM

N-{3-[2-(1-{[(4-chlorophenyl)sulfonyl]-2,5-difluoroanilino}ethyl)phenoxy]propyl}-2,5-bis(trifluoromethyl)benzamide [Example 736]
IC50 [2]: 100 to 500 nM

O=S(=O)(c1ccc(Cl)cc1)N(Cc1ccccc1OCCCN1CCCCCC1)c1ccccc1 [Example 305, N-{2-[3-(1-azepanyl)propoxy]benzyl}-4-chloro-N-phenylbenzenesulfonamide Hydrochloride]
IC50 [5]: 50 to 100 nM

CC(CNC(=O)OCCc1ccccc1[C@@H](C)N(c1cc(F)ccc1F)S(=O)(=O)c1ccc(Cl)cc1)c1ccccc1 (stereo partly drawn) [Example 402, 2-[2-((1R)-1-{[(4-chlorophenyl)sulfonyl]-2,5-difluoroanilino}ethyl)phenyl]ethyl 2-phenylpropylcarbamate]
IC50 (Homo sapiens, 16 h, transfected H4 cells stably expressing APP, approximately 16 hours incubation, Table B, read-out: ACTIVITY (IC50, inhibition of amyloid β production)): 50 to 100 nM

C[C@H](CC[S+]([O-])CC(=O)O)N(c1cc(Cl)ccc1Cl)S(=O)(=O)c1ccc(Cl)cc1 (stereo partly drawn) [Example 1196, (6R)-6-[(2,5-dichlorophenyl)-[(4-chlorophenyl)sulfonyl]-amino]-3-thioheptanoic acid, 3-oxide]
IC50 [3]: > 500 nM

COC(=O)[C@@H](NC(=O)CCCC[C@@H](C)N(c1cc(Cl)ccc1F)S(=O)(=O)c1ccc(Cl)cc1)C(C)C [Example 1261, (R)-4-Chloro-N-(5-chloro-2-fluorophenyl)-N-[6-[N-(S)-[1-(methoxycarbonyl)-2-methylpropyl]amino]-1-methyl-6-oxohexyl]benzenesulfonamide]
IC50 [3]: ≤ 25 nM

C=CCOc1ccccc1CN(c1ccccc1)S(=O)(=O)c1ccc(Cl)cc1 [Example 1001, N-[2-(allyloxy)benzyl]-4-chloro-N-phenylbenzenesulfonamide]
IC50 [6]: > 500 nM

4-chloro-N-{3-[2-(1-{[(4-chlorophenyl)sulfonyl]-2,5-difluoroanilino}ethyl)phenoxy]propyl}-N-methyl-2-nitrobenzamide [Example 636]
IC50 [2]: 100 to 500 nM

O=[N+]([O-])c1ccc([S+]([O-])CCCOc2ccccc2CN(c2cc(F)ccc2F)S(=O)(=O)c2ccc(Cl)cc2)cc1 (stereo not drawn) [Example 689, 4-chloro-N-(2,5-difluorophenyl)-N-(2-{3-[(4-nitrophenyl)sulfinyl]propoxy}benzyl)benzenesulfonamide]
IC50 [7]: 100 to 500 nM

4-[2-((1R)-1-{[(4-chlorophenyl)sulfonyl]-2,5-difluoroanilino}ethyl)-5-fluorophenyl]-N-(cyanomethoxy)butanamide [Example 1079]
IC50 [1]: > 500 nM

C[C@H](COC(=O)N(C)CCCn1ccnc1)N(c1cc(Cl)ccc1Cl)S(=O)(=O)c1ccc(Cl)cc1 [Example 1250, 4-Chloro-N-(2,5-dichlorophenyl)-N-[2-[[[N′-[3-(1H-imidazol-1-yl)propyl]-N′-methylamino]carbonyl]oxy]-(R)-1-methylethyl]benzenesulfonamide]
IC50 [3]: ≤ 25 nM

O=S(=O)(c1ccc(Cl)cc1)N(Cc1ccccc1OCCCN1CCCCC1)C1CC1 [Example 1003, 4-chloro-N-cyclopropyl-N-{2-[3-(1-piperidinyl)propoxy]benzyl}benzenesulfonamide hydrochloride]
IC50 [6]: > 500 nM

C[C@H](C(=O)N[C@@H]1CC2CCC1C2)N(c1cc(Cl)ccc1F)S(=O)(=O)c1ccc(Cl)cc1 (stereo partly drawn) [Example 627]
IC50 [2]: 100 to 500 nM

CC(=O)Nc1nc(C)c(S(=O)(=O)N(Cc2ccccc2OCCCN2CCCCC2)c2cc(Cl)ccc2Cl)s1 [Example 259, N-{5-[(2,5-dichloro{2-[3-(1-piperidinyl)propoxy]benzyl}anilino)sulfonyl]-4-methyl-1,3-thiazol-2-yl}acetamide Hydrochloride]
IC50 (Table B, transfected H4 cells stably expressing APP, approximately 16 hours incubation, read-out: ACTIVITY (inhibitory concentration IC50, inhibition of amyloid β production)): 25 to 50 nM

2,4-dichloro-N-{3-[2-(1-{[(4-chlorophenyl)sulfonyl]-2,5-difluoroanilino}ethyl)phenoxy]propyl}-5-fluorobenzamide [Example 682]
IC50 [2]: 100 to 500 nM

O=S(=O)(c1ccc(Cl)cc1)N(Cc1ccccc1OCCC[S+]([O-])c1ccccc1)c1cc(F)ccc1F (stereo not drawn) [Example 702, 4-chloro-N-(2,5-difluorophenyl)-N-{2-[3-(phenylsulfinyl)propoxy]benzyl}benzenesulfonamide]
IC50 [7]: 100 to 500 nM

C[C@H](C(=O)NCCCCc1ccccc1)N(c1cc(Cl)ccc1F)S(=O)(=O)c1ccc(Cl)cc1 [Example 1324]
IC50 [4]: > 500 nM

C[C@H](COC(=O)NCCCn1ccnc1)N(c1cc(Cl)ccc1F)S(=O)(=O)c1ccc(Cl)cc1 [Example 1244, 4-Chloro-N-(2-fluoro-5-chlorophenyl)-N-[2-[[N′-[3-(1H-imidazol-1-yl)propylamino]carbonyl]oxy]-(R)-1-methylethyl]benzenesulfonamide]
IC50 [3]: ≤ 25 nM

N-{3-[2-({[(4-chlorophenyl)sulfonyl]-2,5-difluoroanilino}methyl)phenoxy]propyl}-2,3,4-trifluoro-N-methylbenzamide [Example 864]
IC50 [1]: 100 to 500 nM

O=S(=O)(c1ccc(Cl)cc1)N(Cc1ccncc1)Cc1ccccc1OCCCN1CCCCC1 [Example 967, 4-chloro-N-{2-[3-(1-piperidinyl)propoxy]benzyl}-N-(4-pyridinylmethyl)benzenesulfonamide hydrochloride]
IC50 [6]: > 500 nM

C[C@H](C(=O)N[C@H](CO)Cc1ccccc1)N(c1cc(Cl)ccc1F)S(=O)(=O)c1ccc(Cl)cc1 [Example 1355]
IC50 [4]: > 500 nM

CCC[C@@H](C)N(Cc1ccccc1OCCCN1CCCCC1)S(=O)(=O)c1ccc(Cl)cc1 [Example 980, 4-chloro-N-[(1R)-1-methylbutyl]-N-{2-[3-(1-piperidinyl)propoxy]benzyl}benzenesulfonamide hydrochloride]
IC50 (transfected H4 cells stably expressing APP, approximately 16 hours incubation, hydrochloride, read-out: ACTIVITY (IC50, inhibition of amyloid β production)): > 500 nM

COC(=O)[C@H](CS(=O)(=O)CCCc1cc(F)ccc1[C@@H](C)N(c1cc(F)ccc1F)S(=O)(=O)c1ccc(Cl)cc1)NC(=O)OC(C)(C)C [Example 486]
IC50 [5]: 100 to 500 nM
